This note sets out measurements from ChEMBL document CHEMBL1125729, “A cardioselective, hydrophilic N,N,N-trimethylethanaminium alpha-tocopherol analogue that reduces myocardial infarct size” (J Med Chem, 1991).

Series [1] is filed under the species Rattus norvegicus. Briefly: Compound was evaluated for prevention of spontaneous lipid peroxidation in rat brain homogenate. It is filed as functional.
A short description of series [2]: Partition coefficient (logD) (octanol/phosphate buffer). It is filed as physicochemical.
For series [3], the system named is Rattus norvegicus. Briefly: Total radioactivity 1 hour after intravenous administration of 1 mg/kg in rat heart. It is filed as functional.
Series [4] is described as follows: Ratio of total radioactivity of skeletal muscle to blood in rats.
Series [5] has as its system Rattus norvegicus. Briefly: Total radioactivity 1 hour after intravenous administration of 1 mg/kg in rat skeletal muscle. It is filed as functional, Muscle tissue.
A short description of series [6]: Ratio of total radioactivity of heart tissue to blood in rats. It is filed as tissue-based.
Series [7] concerns Rattus norvegicus. Kind of series: Total radioactivity 1 hour after intravenous administration of 1 mg/kg in rat blood. It is filed as functional.
A short description of series [8]: Ratio of total radioactivity of blood to blood in rats.

The compound `Cc1c(C)c2c(c(C)c1O)CCC(C)(C(=O)O)O2` (stereo unspecified) [TROLOX] yielded a 50% inhibitory concentration (IC50) in the series filed under Rattus norvegicus [1] of 12 µM. The compound further showed a logD in series [2] of -1.02.
Consider `CC(=O)Oc1c(C)c(C)c2c(c1C)CCC(C)(CCN(C)C)O2` (stereo unspecified), for which the Total radioactivity in the series with Rattus norvegicus [3] is 0.28; in the series on Rattus norvegicus [5], 0.27; in the series with Rattus norvegicus [7], 0.18. Moreover, the Ratio was 1.5 in series [4], 1.6 in series [6] and 1 in series [8]. In series [2], the logD is 1.56.
In turn, `Cc1c(C)c2c(c(C)c1O)CCC(C)(CCN(C)C)O2` (stereo unspecified) showed an IC50 in the series filed under Rattus norvegicus [1] of 0.5 µM. The logD in series [2] came to 1.15.
Take `Cc1c(C)c2c(c(C)c1O)CC[C@@](C)(CCC[C@H](C)CCC[C@H](C)CCCC(C)C)O2` (racemic) [ALPHA-TOCOPHEROL]: it took 12 µM to reach half-maximal inhibition in the series listed under Rattus norvegicus [1] (IC50).
Regarding `CC(=O)Oc1c(C)c(C)c2c(c1C)CCC(C)(CC[N+](C)(C)C)O2` (stereo unspecified), the Total radioactivity came to 2.28 with Rattus norvegicus [3], 0.19 with Rattus norvegicus [5] and 0.11 with Rattus norvegicus [7]. The Ratio in series [4] was determined as 1.7; in series [6], 20.7; in series [8] it was 1. Further, in series [2], the logD is -0.18.
In the series filed under Rattus norvegicus [1], `Cc1c(C)c2c(c(C)c1O)CCC(C)(CC[N+](C)(C)C)O2` (stereo unspecified) came in with an IC50 of 1.7 µM. Also, the logD in series [2] is -0.6.
